Experimental data as given in patent US20100279997A1, “ANALGESIC THAT BINDS FILAMIN A” (priority 2009, published 2010).

Target: T1, μ opiate receptor (MOR) (Rattus norvegicus, UniProt P33535)
T1 construct: from tissue; host or cells: striatal tissue (membrane preparation)
Assay: MOR agonist activity, [35S]GTPγS binding assay using striatal membranes
Assay type: biochemical
Conditions: for [35S]GTPγS binding to Gαo, FLNA-binding compound as agonist 0.1 μM: 0.1 μM compound; for [35S]GTPγS binding to Gαo, FLNA-binding compound as agonist 0.1 μM / [35S]GTPγS binding to Gαo, FLNA-binding compound as agonist 1 μM: striatal membranes; for [35S]GTPγS binding to Gαo, FLNA-binding compound as agonist 1 μM + BFNA: 1 μM compound + 1 μM β-funaltrexamine; for [35S]GTPγS binding to Gαo, FLNA-binding compound as agonist 1 μM: 1 μM compound; for % DAMGO + BFNA: relative to DAMGO + BFNA; for % DAMGO (0.1 μM) / % DAMGO (1 μM): relative to DAMGO
Protocol: To assess the μ opiate receptor (MOR) agonist activity of positive compounds from the FLNA screening, compounds were tested in a [^35S]GTPγS binding assay using striatal membranes.
Striatal tissue was homogenized in 10 volumes of ice cold 25 mM HEPES buffer, pH 7.4, which contained 1 mM EGTA, 100 mM sucrose, 50 μg/ml leupeptin, 0.04 mM PMSF, 2 μg/ml soybean trypsin inhibitor and 0.2% 2-mercaptoethanol. The homogenates were centrifuged at 800×g for 5 minutes and the supernatants were centrifuged at 49,000×g for 20 minutes. The resulting pellets were suspended in 10 volume of reaction buffer, which contained 25 mM HEPES, pH 7.5, 100 mM NaCl, 50 μg/ml leupeptin, 2 μg/ml soybean trypsin inhibitor, 0.04 mM PMSF and 0.02% […].
The resultant striatal membrane preparation (200 μg) was admixed and maintained (incubated) at 30° C. for 5 minutes in reaction buffer as above that additionally contained 1 mM MgCl2 and 0.5 nM [^35S]GTPγS (0.1 μCi/assay, PerkinElmer Life and Analytical Sciences) in a total volume of 250 μl and continued for 5 minutes in the absence or presence of 0.1-10 μM of an assayed compound of interest. The reaction was terminated by dilution with 750 μl of ice-cold reaction buffer that contained 20 mM MgCl2 and 1 mM EGTA and immediate centrifugation at 16,000×g for 5 minutes.
The resulting pellet was solubilized by sonicating for 10 seconds in 0.5 ml of immunoprecipitation buffer containing 0.5% digitonin, 0.2% sodium cholate and 0.5% NP-40. Normal rabbit serum (1 μl) was added to 1 ml of lysate and incubated at 25° C. for 30 minutes. Nonspecific immune complexes were removed by incubation with 25 μl of protein A/G-conjugated agarose beads at 25° C. for 30 minutes followed by centrifugation at 5,000×g at 4° C. for 5 minutes. The supernatant was divided and separately incubated at 25° C. for 30 minutes with antibodies raised against Gao proteins (1:1,000 dilutions).
The immunocomplexes so formed were collected by incubation at 25° C. for 30 minutes with 40 μl of agarose-conjugated protein A/G beads and centrifugation at 5,000×g at 4° C. for 5 minutes. The pellet was washed and suspended in buffer containing 50 mM Tris-HCl, pH 8.0, and 1% NP-40. The radioactivity in the suspension was determined by liquid scintillation spectrometry. […] DAMGO (H-Tyr-D-Ala-Gly-N-MePhe-Gly-OH; 1 or 10 μM) was used as a positive control.

T1 sequence (P33535 whole entry): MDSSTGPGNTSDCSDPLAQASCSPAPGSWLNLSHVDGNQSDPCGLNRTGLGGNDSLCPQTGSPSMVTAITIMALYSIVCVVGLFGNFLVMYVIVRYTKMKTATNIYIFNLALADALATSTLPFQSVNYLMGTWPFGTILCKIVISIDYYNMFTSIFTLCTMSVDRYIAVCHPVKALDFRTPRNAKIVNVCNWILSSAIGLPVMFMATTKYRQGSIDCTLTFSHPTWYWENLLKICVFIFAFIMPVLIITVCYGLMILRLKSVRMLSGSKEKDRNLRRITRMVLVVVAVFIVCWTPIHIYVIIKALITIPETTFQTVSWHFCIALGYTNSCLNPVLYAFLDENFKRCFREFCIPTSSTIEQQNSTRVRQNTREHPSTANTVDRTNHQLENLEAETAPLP

Compound	[35S]GTPγS binding to Gαo, FLNA-binding compound as agonist 0.1 μM [%]	[35S]GTPγS binding to Gαo, FLNA-binding compound as agonist 1 μM + BFNA [%]	[35S]GTPγS binding to Gαo, FLNA-binding compound as agonist 1 μM [%]	% DAMGO + BFNA [%]	% DAMGO (0.1 μM) [%]	% DAMGO (1 μM) [%]
CC1CCC(C)C(OCC(O)CN2CC(C)OC(C)C2)C1 (stereo not drawn) [Compound A0022]	154.1	28.0	216.0	–	–	–
CC1CN(CC(O)COc2ccccc2)CC(C)O1 (stereo not drawn) [Compound A0025]	58.6	52.2	138.7	–	–	–
CC1CCC(C(C)C)C(OCC(O)CN2CCN(CCCN3CCOCC3)CC2)C1 (stereo not drawn) [Compound A0026]	140.7	120.8	179.8	–	–	–
Cc1ccc(C(C)C)c(OCC(O)CN2CC(C)OC(C)C2)c1 (stereo not drawn) [Compound A0028]	143.6	116.7	187.7	–	–	–
Cc1cccc(OCC(O)CN2CC(C)OC(C)C2)c1 (stereo not drawn) [Compound A0030]	133.4	165.2	287.8	–	–	–
CC1CCC(C(C)C)C(OCC(O)CN2CCN(CCN3CCCCC3)CC2)C1 (stereo not drawn) [Compound A0031]	178.2	150.9	297.0	–	–	–
CC1CCC(C(C)C)C(OCC(O)CN2CC(C)OC(C)C2)C1 (stereo not drawn) [Compound A0032-1]	187.4	224.5	324.5	303.8	95.5	117.6
CCN(CC)CC(O)COC1CC(C)CCC1C(C)C (stereo not drawn) [Compound A0032]	226.9	133.0	257.8	–	–	–
CC1CCC(C(C)C)C(OCC(CN2CC(C)OC(C)C2)NCc2ccccc2)C1 (stereo not drawn) [Compound A0033]	155.8	118.2	254.6	–	–	–
CC1CCC(C(C)C)C(OCC(O)CN2CCCC2=O)C1 (stereo not drawn) [Compound A0035]	120.6	88.6	158.8	–	–	–
CC1CCC(C(C)C)C(OCC(O)CN2CCCCC2=O)C1 (stereo not drawn) [Compound A0036]	144.1	63.2	167.5	–	–	–
CC1CCC(C(C)C)C(OCC(O)CN(C(C)C)C(C)C)C1 (stereo not drawn) [Compound A0037]	177.9	104.6	236.2	141.5	90.7	85.6
CC1CCC(C(C)C)C(OCC(O)Cn2cccc2)C1 (stereo not drawn) [Compound A0038]	176.7	107.0	234.5	–	–	–
CC1CCC(C(C)C)C(OCC(O)CN2CCc3ccccc3C2)C1 (stereo not drawn) [Compound A0040]	46.1	16.7	149.0	–	–	–
CC1CN(CC(O)COc2cccc(N(C)C)c2)CC(C)O1 (stereo not drawn) [Compound A0042]	147.5	89.5	233.1	–	–	–
CC1CN(CC(O)COc2ccccc2Br)CC(C)O1 (stereo not drawn) [Compound A0043]	183.3	89.1	223.8	–	–	–
CC(=O)c1ccc(OCC(O)CN2CC(C)OC(C)C2)cc1 (stereo not drawn) [Compound A0044]	176.2	134.7	209.1	–	–	–
